From US11701369B2, “Polymeric bile acid derivatives inhibit Hepatitis B and D virus and NTCP transport” (Huahui Health Ltd., priority 2014, dated 2023)
“Also recorded” adds a separate entry of the source. Like-named read-outs stand apart in the source and are kept apart here.

Assays:
[1] = system: HBV; assay: HBV infection assay on HepG2-NTCP cells (secreted HBeAg by ELISA); format: cell-based, Hepatitis B virus; conditions: for inhibition of HBV infection (in words): secreted HBeAg
Description: (§1) HBV and HDV infection assay. HepG2NTCP Cells were cultured in PMM for 12-24 hrs before infection, and then inoculated with 200 multiplicities of genome equivalents (mge) of HBV, or 500 mge of HDV in the presence of 5% PEG8000 in PMM at 37° C. for about 24 hrs. Chemicals to be tested were added to the cells as indicated in the specific assays. The inoculum was replenished by PMM post infection. The infections were detected at day 5 post infection (dpi).
ELISA assay for the detection of HBeAg and HBsAg. ELISA kits for HBeAg and HBsAg detection were from Wantai Pharm Inc. (Beijing, China). Supernatant from infected HepG2NTCP cells was collected on 2-5 days post infection. The secreted HBeAg and HBsAg in the culture medium was measured with a commercial kit from Wantai Pharm Inc (Beijing, China) by following the manufactory's instructions.

[2] = system: HDV; assay: HDV infection assay on HepG2-NTCP cells (intracellular delta antigen staining); format: cell-based, Hepatitis D virus
Description: as §1
Immunostaining assay. For HBV infection, infected cells were washed twice with PBS and fixed in 3.7% paraformaldehyde (PFA) at room temperature for 10 mins. Subsequently, cells were permeabilized with 0.5% Trition X-100/PBS for 10 mins at room temperature, blocked with 3% BSA at 37° C. for 1 hour, and followed by incubating with 5 μg/ml mouse mAb1C10 which recognizes HBcAg, and followed by staining with FITC-conjugated secondary antibody. Nucleus was stained with DAPI in blue. The stained cells were imaged with the fluorescence microscope (Nikon). For HDV infection, on 5 dpi, HDV infected cells were fixed with 100% methanol at room temperature for 10 mins, intracellular delta antigens were then stained with 5 μg/ml of FITC conjugated 4G5 and nucleus were stained with DAPI in blue. Images were collected by an Eclipse Ti Fluorescence Microscope (Nikon) and a representative picture is shown.

[3] = biological target: T1, NTCP (Homo sapiens, UniProt Q14973); assay: [3H] taurocholate uptake assay on HepG2-NTCP cells; format: cell-based; conditions: for inhibition of NTCP substrate uptake (in words): co-incubation assay, [3H] taurocholate, 10 min; for IC50: pretreatment assay, HepG2-NTCP cells pretreated 2 hrs before uptake assay, read-out: IC50 for inhibiting NTCP-mediated [3H] taurocholate uptake
T1 construct: expressed in transfected cells
T1 sequence (Q14973 1-349): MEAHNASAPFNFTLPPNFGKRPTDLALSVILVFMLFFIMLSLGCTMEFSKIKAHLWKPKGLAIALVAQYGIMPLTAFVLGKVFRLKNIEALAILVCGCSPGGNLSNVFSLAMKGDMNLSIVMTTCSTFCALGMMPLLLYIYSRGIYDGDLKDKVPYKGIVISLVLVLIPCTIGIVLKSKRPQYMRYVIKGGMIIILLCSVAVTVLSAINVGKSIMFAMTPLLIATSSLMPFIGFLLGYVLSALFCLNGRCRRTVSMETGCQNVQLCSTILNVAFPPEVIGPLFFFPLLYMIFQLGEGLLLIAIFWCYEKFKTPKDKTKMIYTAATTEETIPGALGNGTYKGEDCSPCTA
Description: [3H] substrate uptake assay. [3H]taurocholate uptake assay was conducted following a protocol as previously described(60). In general, HepG2-NTCP cells were cultured in PMM for 12-24 hrs, then were treated with or without indicated chemicals before uptake assay. For substrate uptake assay, cells were generally incubated with 0.5 μl (0.5 μCi) [3H]-taurocholate dissolved in Na+ Ringer's solutions for 10 mins at 37° C. with or without the presence of chemicals. Subsequently, cells were washed once by PBS and lysed by 100 μl of 1% TritonX-100 in H2O for 5 mins at room temperature. The lysate was transferred into liquid scintillation tube and mixed with 900 μl liquid scintillation cocktail (Ultima GOLD™ XR) (Perkin Elmer, USA). Liquid scintillation counting was performed on a Perkin Elmer 1450 LSC Liquid Scintillation Counter and Luminescence Counter.

[4] = system: HepG2-NTCP cells; assay: In vitro cytotoxicity on HepG2-NTCP cell line; format: cell-based
Description: FIG. 6 Toxicity of 3UT(NQL-012), DiU(NQL-009) and 3TPT(NQL-018) in cell cultures. HepG2-NTCP cells were incubated with 3UT(NQL-012), DiU(NQL-009) or 3TPT(NQL-018) at indicated concentrations for 48 hrs, cell viability was evaluated and images were captured at 5 dpi.
In vitro cytotoxicity of PBADs. We also conducted experiments to determine the LD50 on HepG2-NTCP cell line of the three PBADs (3-UT (NQL-012), DIU (NQL-009), 3TPT (NQL-018)). We treated cells by different concentrations of PBADs for 48 hrs and captured the images of cells after they were further cultured for 3 days in PMM. […] No detectable cytotoxicity was observed upon treatment of DIU(NQL-009) and 3TPT(NQL-018) up to 200 μM, which is 2000-4000 folds higher than its inhibitory concentration for HBV infection.

[5] = biological target: T1, NTCP; assay: FITC-preS1 peptide binding assay
Description: FITC-preS1 peptide binding assay. NTCP expressing cells were cultured in PTH maintenance medium (PMM) for 24 hrs before conducting this assay. For Immunofluorescence microscopy, cells were incubated with 400 nM FITC-pre-S1 peptide diluted in WME or PMM at 37° C. for about 2-3 hrs. Subsequently, cells were washed once by WME, and then directly visualized with a Fluorescence Microscope.

[6] = system: HBV; assay: In vitro stability: incubation with HBV inocula before infection, HBeAg ELISA; format: cell-based, Hepatitis B virus; conditions: incubated with HBV inocula for different times before infection, HBeAg at 5 dpi
Description: FIG. 10 The influence of the linkage groups on the in vitro stability of PBADs. TUDCA, NQL018, NQL044, and NQL055 were incubated with HBV inocula of different times before viral infection, and present in the inocula during infection period. The level of secreted HBeAg was detected by ELISA at 5 dpi.
The in vitro stability of PBADs could PBADs could be enhanced by optimization of the linkage bond. We conducted stability analysis of several PBADs with similar structure but of different linkage. […] This indicates the in vitro and in vivo stability is to a large extent determined by the feature of the linkage groups.

[7] = system: HBV; assay: HBV infection assay on HepaRG cells (HBsAg and HBeAg ELISA); format: cell-based, Hepatitis B virus; conditions: HBsAg and HBeAg at 5 dpi
Description: FIG. 11 HepaRG cells were infected with HBV in the presence of indicated PBADs. The level of secreted HBsAg and HBeAg was detected by ELISA at 5 dpi.
The antiviral potency of PBADs is also repeatable on other HBV infection system (HepaRG) with similar inhibition profile. […] HBV infection was conducted in the presence of NQL028, NQL018, NQL029, NQL019 and NQL021, all of which were bis-ester based PBADs with different linkage length.

[8] = Hepatitis B virus, read-out: IC50 for inhibiting HBV infection, HepG2-NTCP cells, PBAD present during infection, HBeAg in medium at 5 dpi

Row | SMILES | inhibition of HBV infection (in words) ([1]; HepG2-NTCP cells) | IC50 [1, 8] [µM] | IC50 ([1]; read-out: IC50 for inhibiting HBV infection, HepG2-NTCP cells, PBAD present during infection, HBeAg in medium at 5 dpi) [µM] | inhibition of HDV infection (in words) [2] | inhibition of NTCP substrate uptake (in words) [3] | IC50 [3] [µM] | concentration up to which no detectable cytotoxicity was observed ([4]; human, 48 h) [µM] | blocking of FITC-preS1 binding to NTCP (in words) ([5]; HepG2-NTCP cells, pretreatment versus co-incubation, 3 hrs) | in vitro stability (antiviral potency after long incubation with the inoculum) [6] | inhibition of HBV infection on HepaRG cells (in words) [7] | LD50 ([4]; HepG2-NTCP, 48 hrs treatment, then 3 days culture in PMM) [µM] | effect on FITC-preS1 peptide at high concentration ([5]; high concentration of compound)
1 | C[C@H](CCC(=O)NCCS(=O)(=O)O)[C@H]1CC[C@H]2[C@@H]3[C@@H](O)CC4C[C@H](OC(=O)CCCC(=O)O[C@@H]5CC[C@@]6(C)C(C5)C[C@H](O)[C@H]5[C@@H]7CC[C@H]([C@H](C)CCC(=O)NCCS(=O)(=O)O)[C@@]7(C)CC[C@@H]56)CC[C@]4(C)[C@H]3CC[C@]12C (stereo in doubt) [NQL-018] | high antiviral activity; also recorded: greatly improved potency | 0.051 | 0.051 | high antiviral activity; also recorded: greatly improved potency | significantly higher efficiency than that of TUDCA | 0.0587 | 200 | effect of pretreatment of 3TPT(NQL-018) was not as strong as that of co-incubation | not stable upon long time incubation with the inoculum; also recorded: decreased activity after long time incubation | inhibited HBV infection | – | –
2 | C[C@H](CCC(=O)O[C@H]1CC[C@@]2(C)C(C1)C[C@H](O)C1[C@H]3CC[C@H]([C@H](C)CCC(=O)NCCS(=O)(=O)O)[C@@]3(C)CC[C@H]12)[C@H]1CC[C@@H]2C3[C@@H](CC[C@@]21C)[C@@]1(C)CC[C@H](O)CC1C[C@@H]3O (stereo partly shown) [NQL-012] | high antiviral activity; also recorded: greatly improved potency | 0.1 | – | high antiviral activity; also recorded: greatly improved potency | significantly higher efficiency than that of TUDCA | 0.109 | – | – | – | – | ~25 | –
3 | C[C@H](CCC(=O)O[C@H]1CC[C@@]2(C)C(C1)C[C@H](O)C1[C@H]3CC[C@H]([C@H](C)CCC(=O)O[C@H]4CC[C@@]5(C)C(C4)C[C@H](O)C4[C@H]6CC[C@H]([C@H](C)CCC(=O)NCCS(=O)(=O)O)[C@@]6(C)CC[C@H]45)[C@@]3(C)CC[C@H]12)[C@H]1CC[C@@H]2C3[C@@H](CC[C@@]21C)[C@@]1(C)CC[C@H](O)CC1C[C@@H]3O (stereo partly shown) [NQL-016] | not as high as the dimeric counterparts | – | – | not as high as the dimeric counterparts | – | – | – | – | – | – | – | aggregation of FITC-preS1 peptide
